Among the data in ChEMBL document CHEMBL4266045, “Understanding Molecular Drivers of Melanin Binding To Support Rational Design of Small Molecule Ophthalmic Drugs” (J Med Chem, 2018) are Fu and logD values, retold here.

The subject of data set [1] is Sepia officinalis. The experiment in a line: Binding affinity to Sepia officinalis melanin assessed as fraction unbound at 2 uM after 2 hrs by high-throughput screening assay.
The nature of data set [2]: Lipophilicity, log D of compound. Particulars: octanol/water.

Usually logD stands for lipophilicity at a set pH, counting ionised and neutral species.

Consider `CN(C)c1nc2ccc(Cl)cc2s1`, for which, in data set [1], the Fu was found to be 0.2%. The logD in data set [2] stood at 2.04.

With `CCCCN1CCC(CCC(=O)c2cc(Cl)c(N)cc2OC)CC1`, the Fu in data set [1] was found to be 0.8%. In addition, the pH-dependent lipophilicity (logD) in data set [2] was 1.91.

On to `Nc1nc2ccc(OC(F)(F)F)cc2s1`, for which the Fu in data set [1] turned out to be 48%.

On to `c1ccc2c(c1)oc1c(Nc3ccncc3)ncnc12`, for which, in data set [1], the Fu came to 0.1%. The same compound registered a logD in data set [2] of 2.98.

In the case of `COc1cc(N)c(Cl)cc1C(=O)CCC1CCNCC1`, the Fu in data set [1] came to 34%. This compound also registered a logD in data set [2] of 0.01.

Turning to `Cc1ccccc1Nc1ncnc2c1oc1ccccc12`, the Fu in data set [1] amounted to 34%. This compound showed a log distribution coefficient (logD) in data set [2] of 3.77.
